Common to all, as to assay type: functional
The target in experiment [1] is T1, Type-1 angiotensin II receptor (Homo sapiens, UniProt P30556).
T1 sequence (P30556 whole entry): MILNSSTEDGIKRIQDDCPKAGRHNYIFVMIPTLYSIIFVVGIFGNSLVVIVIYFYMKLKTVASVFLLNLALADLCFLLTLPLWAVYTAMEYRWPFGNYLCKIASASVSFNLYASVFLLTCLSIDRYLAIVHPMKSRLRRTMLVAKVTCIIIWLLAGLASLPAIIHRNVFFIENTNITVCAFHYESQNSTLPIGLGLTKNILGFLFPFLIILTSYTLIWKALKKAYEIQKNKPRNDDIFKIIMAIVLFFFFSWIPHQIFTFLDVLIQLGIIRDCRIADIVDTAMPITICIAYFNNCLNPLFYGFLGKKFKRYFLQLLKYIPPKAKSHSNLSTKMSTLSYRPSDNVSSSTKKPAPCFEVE
Nature of the experiment: AT1 receptor antagonists, dose response, selectivity assay for APJ receptor antagonist project, cell-based, uHTS hits (AID 463214).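 Further: antagonist potency against angiotensin II stimulated AT1 response.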

The next experiment can be described thus: cells.
Another experiment concerns the target T2, Hexokinase HKDC1 (Homo sapiens, UniProt Q2TB90).
T2 sequence (Q2TB90 whole entry): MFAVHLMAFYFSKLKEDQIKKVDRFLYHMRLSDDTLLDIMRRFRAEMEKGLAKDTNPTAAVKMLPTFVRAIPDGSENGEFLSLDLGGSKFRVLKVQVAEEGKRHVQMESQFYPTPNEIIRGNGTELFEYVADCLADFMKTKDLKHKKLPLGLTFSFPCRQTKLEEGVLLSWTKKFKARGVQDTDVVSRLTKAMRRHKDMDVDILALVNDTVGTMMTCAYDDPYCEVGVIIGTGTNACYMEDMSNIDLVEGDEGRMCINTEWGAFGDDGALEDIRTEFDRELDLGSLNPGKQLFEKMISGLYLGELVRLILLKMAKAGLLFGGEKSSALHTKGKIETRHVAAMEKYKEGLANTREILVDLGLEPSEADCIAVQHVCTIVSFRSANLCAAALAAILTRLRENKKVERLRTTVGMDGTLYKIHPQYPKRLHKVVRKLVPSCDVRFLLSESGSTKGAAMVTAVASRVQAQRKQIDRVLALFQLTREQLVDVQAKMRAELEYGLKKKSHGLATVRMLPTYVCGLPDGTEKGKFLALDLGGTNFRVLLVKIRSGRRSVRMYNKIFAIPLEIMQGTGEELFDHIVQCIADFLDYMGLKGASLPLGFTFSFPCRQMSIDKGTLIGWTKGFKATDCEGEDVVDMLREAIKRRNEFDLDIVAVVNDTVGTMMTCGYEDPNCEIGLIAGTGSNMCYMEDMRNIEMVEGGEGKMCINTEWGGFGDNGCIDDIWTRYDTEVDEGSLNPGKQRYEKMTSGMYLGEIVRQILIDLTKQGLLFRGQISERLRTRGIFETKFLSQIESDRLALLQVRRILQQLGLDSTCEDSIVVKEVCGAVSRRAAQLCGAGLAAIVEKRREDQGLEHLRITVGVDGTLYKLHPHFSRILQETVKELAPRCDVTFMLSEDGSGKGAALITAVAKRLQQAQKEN
Nature of the experiment: HKDC1 hexokinase inhibitors, dose response, biochemical, W721R variant (AID 504729).

Experiment [2] addresses T3, Apoptotic protease-activating factor 1 (Homo sapiens, UniProt O14727).
T3 sequence (O14727 whole entry): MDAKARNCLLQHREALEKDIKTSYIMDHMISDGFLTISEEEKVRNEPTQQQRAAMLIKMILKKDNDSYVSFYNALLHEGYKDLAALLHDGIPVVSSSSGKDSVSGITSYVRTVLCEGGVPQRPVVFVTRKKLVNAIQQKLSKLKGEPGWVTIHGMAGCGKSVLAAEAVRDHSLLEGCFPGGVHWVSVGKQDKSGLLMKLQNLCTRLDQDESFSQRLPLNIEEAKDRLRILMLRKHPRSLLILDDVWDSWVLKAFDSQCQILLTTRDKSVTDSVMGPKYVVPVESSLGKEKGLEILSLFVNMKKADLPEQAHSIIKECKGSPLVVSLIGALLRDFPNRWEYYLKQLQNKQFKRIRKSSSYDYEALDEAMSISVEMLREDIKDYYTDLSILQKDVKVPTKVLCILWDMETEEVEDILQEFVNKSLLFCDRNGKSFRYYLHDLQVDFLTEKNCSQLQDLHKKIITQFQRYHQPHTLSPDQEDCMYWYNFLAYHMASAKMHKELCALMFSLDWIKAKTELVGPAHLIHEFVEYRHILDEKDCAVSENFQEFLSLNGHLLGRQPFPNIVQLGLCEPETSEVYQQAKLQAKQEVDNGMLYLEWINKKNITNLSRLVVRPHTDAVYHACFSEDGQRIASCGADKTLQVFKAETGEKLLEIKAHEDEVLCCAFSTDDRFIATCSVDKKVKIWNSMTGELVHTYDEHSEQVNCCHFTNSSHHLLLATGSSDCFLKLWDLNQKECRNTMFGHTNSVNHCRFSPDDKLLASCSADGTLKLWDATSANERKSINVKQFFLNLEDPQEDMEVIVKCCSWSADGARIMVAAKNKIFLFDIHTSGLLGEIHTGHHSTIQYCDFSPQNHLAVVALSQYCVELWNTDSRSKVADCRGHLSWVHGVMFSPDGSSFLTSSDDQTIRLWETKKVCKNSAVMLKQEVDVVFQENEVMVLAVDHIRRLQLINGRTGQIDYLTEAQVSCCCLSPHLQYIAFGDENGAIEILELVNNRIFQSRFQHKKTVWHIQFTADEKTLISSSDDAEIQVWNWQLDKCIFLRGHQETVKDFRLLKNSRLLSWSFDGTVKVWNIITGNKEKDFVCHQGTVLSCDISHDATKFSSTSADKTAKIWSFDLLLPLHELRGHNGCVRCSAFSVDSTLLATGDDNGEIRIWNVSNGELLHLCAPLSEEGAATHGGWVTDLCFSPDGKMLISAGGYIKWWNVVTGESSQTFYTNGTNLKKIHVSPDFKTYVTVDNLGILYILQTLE

Experiment [3] is described as follows: growth suppression of beta-catenin-knockout colon cells, dose response, cell-based, HCT116, human colon tumor (AID 1045).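 Further: HCT116 colon tumor cells with beta catenin knocked out; cells exposed to compound for 60 hours.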
The next experiment relates to Vero. Nature of the experiment: Vero cell cytotoxicity, cytotoxicity control for flavivirus capping enzyme inhibitors (AID 588742). The note with it: Chlorocebus sabaeus.
Experiment [4] is described as follows: Luminescence-based counterscreen assay for KLF5 inhibitors: dose response cell-based high throughput screening assay to identify cytotoxic compounds using the IEC-6 intestinal epithelial cell line. [Related pubchem assays: 1700 (Primary screen.), 1834 (Confirmation screen.), 1858 (Summary AID.), 1905 (Counterscreen.)].

This note sets out measurements from ChEMBL document CHEMBL1201862, “PubChem BioAssay data set” (2004).

The source made the active and inactive calls.

Take `Oc1c(C(c2ccccc2Cl)N2CCCC2)ccc2cccnc12` (configuration not stated): the 50% inhibitory concentration (IC50) is 12 µM (active) in experiment [1] and 13.2 µM (active) in the experiment “cells”.
For `CCc1ccc(S(=O)(=O)/N=C2\C=C(Nc3ccc(C(=O)O)cc3)C(=O)c3ccccc32)cc1`, the figures for the half-maximal inhibitory concentration (IC50) (on Hexokinase HKDC1; in experiment [2]) were 6.5 µM (active) and 9.6 µM (active), respectively.
Consider `[O-][N+]1=c2ccc(Nc3ccccc3)cc2=NC12CCCCC2`, for which the 50% effective concentration (EC50) in experiment [3] was 1.62 µM (active). The 50% cytotoxic concentration (CC50) in the experiment with Vero is 18.6 µM (active).
Take `COc1cccc(/C=N/Nc2ccc([N+](=O)[O-])cn2)c1O`: the half-inhibitory concentration (IC50) in experiment [4] was 16.2 µM (not active).
